Assays:
[1] = test system: mouse hepatocyte cell lines (AML12); experiment: TGF-β-induced fibrosis, co-administration of curcumin derivative and EW-7197 (epithelial-mesenchymal conversion, BODIPY, α-SMA staining, Western blotting); assay type: cell-based; settings: 2 ng/ml TGF-β, 24 hours, 1 μM Cur or Cur5-8, 10 μM EW-7197
Method: Fibrosis was induced in hepatocytes with TGF-β, a curcumin derivative and a TGF-β receptor inhibitor were co-administered, and then fibrosis and fat synthesis and degradation were checked.
Specifically, 2 ng/ml of TGF-β was administered to the cells of Example 1-1, the cells were divided into administration groups of vehicle (Veh), 1 μM curcumin (Cur), 1 μM curcumin 5-8 (Cur5-8), 0.5 μM EW-7197 (EW0.5), 10 μM EW-7197 (EW or EW10), 1 μM curcumin and 0.5 μM EW-7197 (EW0.5+Cur), 1 μM curcumin and 10 μM EW-7197 (EW+Cur or EW10+Cur), 1 μM curcumin 5-8 and 0.5 μM EW-7197 (EW0.5+Cur5-8), 1 μM curcumin 5-8 and 10 μM EW-7197 (EW+Cur5-8 or EW10+Cur5-8), respective samples were administered, and culturing was performed for 24 hours. The control group (Con) was not treated with either TGF-β or the sample. […] After washing with PBS 1×, stained cells were observed.
In addition, in order to check the degree of fibrosis of hepatocytes, the cells cultured for 24 hours were fixed with 4% paraformaldehyde and then stained by using α-SMA (Santa Cruz Biotechnology, Inc., Dallas, Texas, USA), an Alexafluor 488 (Cell Signaling Technology, Danvers, Massachusetts, USA) antibody, and DAPI (Abcam plc., Cambridge, MA, USA). The cells were mounted with a mounting solution (Fisher Scientific, Hampton, Rockingham, USA), the manufactured sample was photographed using a confocal microscope to obtain photographs of stained cells, and the degree of color development in the photographs of the stained cells was analyzed with the ImageJ program.
In addition, in order to confirm the degree of fibrosis of hepatocytes, the cells cultured for 24 hours were collected, and protein expressions of α-SMA, Collagen I (Coll), p-SMAD2, and p-SMAD3 were checked by Western blotting with fibrosis markers in the same method as described in <Example 1-3>.
In order to check a synergistic effect of inhibiting fibrosis caused by a TGF-β and inhibiting fat accumulation caused thereby in case of co-administration of a curcumin derivative (Cur5-8) and a TGF-β receptor inhibitor (EW-7197), epithelial-mesenchymal conversion of hepatocytes was confirmed through a cell experiment by the method described in Example 1-5, and BODIPY staining and α-SMA staining were performed. Also, protein expressions of α-SMA, Collagen I p-SMAD2, and p-SMAD3 were checked by Western blotting.

[2] = test system: AML12 cells (mouse hepatocyte cell lines); experiment: Cytotoxicity of curcumin derivatives (MTT) with TGF-β treatment; assay type: cell-based; settings: 2 ng/ml TGF-β; at concentrations other than 0.1 μM (1, 3, 5 μM); FIG. 1
Method: Cell experiments were performed by using AML12, […], and LX-2 cells, a human hepatic stellate cell.
AML12 cells were cultured in a culture medium made by adding 5 ml of insulin (ITS), 40 ng/ml of dexamethasone, 1% penicillin streptomycin (anti-anti), and 10% fetal bovine serum (FBS) to F-12 media (Corning Incorporated, USA, Arizona), a mixture of a DMEM medium and Ham's F-12 at a ratio of 50:50, which is used for culturing hepatocytes or prostate epithelial cells.
In order to confirm cytotoxicity, the cells of Example 1-1 were treated with 2 ng/ml of TGF-β, and then with curcumin (CUR), curcumin 5-8 (CURS-8), curcumin 4-8 (CUR4-8), and curcumin 5-14 (CURS-14) at 0.1, 1, 3, and 5 μM, respectively, for the same period of time. Thereafter, cells cultured in an incubator of 5% CO2 at 37° C. were stained with a tetrazolium dye capable of staining surviving cells (MTT), and absorbance was measured by using a spectrophotometer.
By a method described in Example 1-2, the numbers of surviving cells when curcumin (CUR) and curcumin derivatives (CUR5-8, CUR4-8, and CUR5-14) each were co-administered with TGF-β at respective concentrations were measured.

Row | SMILES | epithelial-mesenchymal conversion caused by TGF-β ([1]; FIG. 8) | liver fibrosis (α-SMA staining, fibrosis marker Western blotting) ([1]; FIGS. 8, 10, 11) | cytotoxicity (MTT) [2]
1 | COc1cc(/C=C/C(=O)CC(=O)/C=C/c2ccc(O)c(OC)c2)ccc1O [Cur, curcumin] | not inhibited | liver fibrosis was induced | 
2 | COc1cc(C#Cc2cncc(C#Cc3ccc(O)c(OC)c3)c2)ccc1O [Cur4-8, 4,4′-(3,5-Pyridinediyldi-2,1-ethynediyl)bis(2-methoxyphenol)] |  |  | cytotoxicity was high
